The source of these data is US20200239530A1, “COMPOUNDS AND METHODS OF MODULATING PROTEIN DEGRADATION” (Vividion Therapeutics, Inc., priority 2017, published 2020).

Assay [1] concerns the target T1, TRIM56 E3 ubiquitin-protein ligase TRIM56 (Homo sapiens, UniProt Q9BRZ2).
T1 construct: Cells were resuspended in cold PBS on ice and sonicated with a probe sonicator to achieve lysis; endogenous in cells
T1 sequence (Q9BRZ2 1-755): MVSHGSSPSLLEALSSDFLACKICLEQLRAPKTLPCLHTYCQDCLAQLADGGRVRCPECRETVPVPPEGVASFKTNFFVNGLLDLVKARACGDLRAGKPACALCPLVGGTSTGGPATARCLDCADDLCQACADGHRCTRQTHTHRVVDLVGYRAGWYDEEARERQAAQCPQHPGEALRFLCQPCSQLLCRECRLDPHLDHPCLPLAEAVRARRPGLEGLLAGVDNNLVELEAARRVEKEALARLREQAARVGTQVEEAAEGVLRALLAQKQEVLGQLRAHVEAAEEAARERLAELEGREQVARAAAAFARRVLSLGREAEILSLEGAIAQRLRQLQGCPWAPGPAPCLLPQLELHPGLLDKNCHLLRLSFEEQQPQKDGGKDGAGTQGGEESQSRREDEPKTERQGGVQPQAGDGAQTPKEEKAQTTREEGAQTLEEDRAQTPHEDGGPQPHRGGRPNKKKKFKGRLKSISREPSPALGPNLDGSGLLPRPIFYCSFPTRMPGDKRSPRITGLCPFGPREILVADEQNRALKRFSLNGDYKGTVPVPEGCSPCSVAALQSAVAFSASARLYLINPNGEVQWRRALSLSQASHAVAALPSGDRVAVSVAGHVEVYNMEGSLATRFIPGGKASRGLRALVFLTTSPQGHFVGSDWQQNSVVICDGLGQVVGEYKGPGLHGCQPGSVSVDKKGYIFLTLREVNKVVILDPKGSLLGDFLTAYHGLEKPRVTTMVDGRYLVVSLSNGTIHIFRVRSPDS
The experiment in a line: Cysteine liganding, probe competition. In kind it is binding. An outline of the steps:
(§1)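 Lysates from probe-sonicated cells in PBS (5 mg/ml proteome) were exposed to compound for 1 hr at 25° C, then labelled with desthiobiotin iodoacetamide probe (10 mM stock) for 1 hr at 25° C. Probe-tagged peptides were streptavidin-enriched after trypsin digestion.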

The target in assay [2] is T2, RRP8 Ribosomal RNA-processing protein 8 (Homo sapiens, UniProt O43159).
T2 construct: Cells were resuspended in cold PBS on ice and sonicated with a probe sonicator to achieve lysis; endogenous in cells
T2 sequence (O43159 1-456): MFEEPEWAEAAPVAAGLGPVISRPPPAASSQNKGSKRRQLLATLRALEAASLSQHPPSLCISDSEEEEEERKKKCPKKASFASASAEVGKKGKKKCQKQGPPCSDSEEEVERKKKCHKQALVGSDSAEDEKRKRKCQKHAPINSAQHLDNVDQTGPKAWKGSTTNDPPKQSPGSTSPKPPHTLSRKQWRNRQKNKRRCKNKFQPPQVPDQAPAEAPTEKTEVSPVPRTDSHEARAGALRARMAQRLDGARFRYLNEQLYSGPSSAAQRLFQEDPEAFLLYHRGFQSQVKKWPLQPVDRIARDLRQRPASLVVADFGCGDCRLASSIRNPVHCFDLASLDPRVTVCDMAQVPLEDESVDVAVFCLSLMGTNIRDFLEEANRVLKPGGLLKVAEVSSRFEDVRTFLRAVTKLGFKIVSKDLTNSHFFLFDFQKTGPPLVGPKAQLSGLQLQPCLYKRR
The experiment in a line: Cysteine liganding, probe competition. In kind it is binding. An outline of the steps: as §1

In the case of `O=C(CCl)Nc1cc(C(F)(F)F)cc(C(F)(F)F)c1` [KBO3], the “KB03_500 uM_percent_inhibition” value in assay [1] (500 uM, UniProt Q9BRZ2) worked out at 93%. Also, in assay [1] (TRIM56 Res# 36, uniprot Q9BRZ2), the Liganded result is on record as “YES”. Moreover, in assay [1] (uniprot Q9BRZ2), the “500 Max” value is given as 78.3 and the 500 ave was found to be 78.3. Further, in assay [2] (uniprot O43159), the “100 Max” value was 14.62, the 100 ave was −3.99, the “500 Max” value stood at 57.64 and the 500 ave amounted to 48.93.

For the compound `COc1ccc2c(c1)CCCN2C(=O)CCl` [KB02], the Liganded result in assay [1] (TRIM56 Res# 338, uniprot Q9BRZ2) is recorded as “YES”; in assay [2] (RRP8 Res# 451, uniprot O43159) it was “YES”.
